Literature values as cited in patent publication US11406636B2, “Combined pharmaceutical composition” (Alepharma, Sociedad Anónima Promotora de inversión de …, priority 2017, dated 2022).
Where two headings read alike, the source gives them in different places.

Key:
[1] = system: CML formation; settings: bovine serum with ribose, presence or absence of natural compounds
[2] = system: streptozotocin-induced diabetic rat; settings: for levels of methylglyoxal: increased by 68% in diabetic rats versus normal controls; for levels of glyoxal: increased by 115% in diabetic rats versus normal controls
[3] = system: diabetic rats; settings: 200 mg/kg weight orally for 8 weeks
[4] = system: bovine serum albumin, ribonuclease A and human hemoglobin; settings: in vitro
[5] = not given; remark: listed apart in the source
[6] = physiological conditions, dose-dependent, forming adducts
[7] = within the first hour under physiological conditions

C[C@@H]1O[C@@H](O[C@@H]2[C@@H](O)[C@H](OCCc3ccc(O)c(O)c3)O[C@H](CO)[C@H]2OC(=O)/C=C/c2ccc(O)c(O)c2)[C@H](O)[C@H](O)[C@H]1O [acteoside]
formation of CML [1]: increase the formation of CML

C/C(=C(\CCOP(=O)(O)O)SC(=O)c1ccccc1)N(C=O)Cc1cnc(C)nc1N [benfotiamine]
levels of methylglyoxal [2]: normalized
levels of glyoxal [2]: normalized

COc1cc(/C=C/C(=O)CC(=O)/C=C/c2ccc(O)c(OC)c2)ccc1O [curcumin, Curcumin]
accelerated accumulation of AGEs in the collagen, detected by ELISA [3]: prevented
accumulation of lipid peroxidation products in serums [3]: significantly reduced
collagen cross-linking in the tendon of the tail and skin [3]: extensively prevented
oxidative stress [3]: significantly reduced

O=C(O)c1cc(O)c(O)c(O)c1 [gallic acid]
formation of CML [1]: increase the formation of CML

CC1(C)[C@@H](O)CC[C@]2(C)[C@H]3C(=O)C=C4[C@@H]5C[C@@](C)(C(=O)O)CC[C@]5(C)CC[C@@]4(C)[C@]3(C)CC[C@@H]12 [glycylrhetinic acid]
formation of CML [1]: significantly inhibited the formation of CML

CC1(C)[C@@H](O[C@H]2O[C@H](C(=O)O)[C@@H](O)[C@H](O)[C@H]2O[C@@H]2O[C@H](C(=O)O)[C@@H](O)[C@H](O)[C@H]2O)CC[C@]2(C)[C@H]3C(=O)C=C4[C@@H]5C[C@@](C)(C(=O)O)CC[C@]5(C)CC[C@@]4(C)[C@]3(C)CC[C@@H]12 [glycyrrhizin]
formation of CML [1]: significantly inhibited the formation of CML

Cc1ncc(CO)c(CN)c1O [pyridoxamine]
inhibition of the formation of AGEs, compared with aminoguanidine [4]: more effective than aminoguanidine

Cc1ncc(CO)c(CO)c1O [pyridoxine, Pyridoxine]
inhibition of the formation of AGEs, compared with aminoguanidine [4]: more effective than aminoguanidine

O=c1c(O)c(-c2ccc(O)c(O)c2)oc2cc(O)cc(O)c12 [quercetin, Quercetin]
formation of CML [1]: significantly inhibited the formation of CML
methylglyoxal trapped [6]: ≤ 80%
methylglyoxal trapped [7]: ≤ 50%
glyoxal trapped [5, 6]: up to 50%
glyoxal trapped [5, 7]: up to 30%

Cc1ncc(C[n+]2csc(CCO)c2C)c(N)n1 [thiamine, Thiamine]
inhibition of the formation of AGEs, compared with aminoguanidine [4]: more effective than aminoguanidine
levels of methylglyoxal [2]: normalized
levels of N-carboxymethyl-lysine (CML) ([2]; increased by 74% in diabetic rats): normalized
levels of glyoxal [2]: normalized
levels of N-carboxyethyl-lysine (CEL) ([2]; increased by 118% in diabetic rats): normalized
